The record followed here is patent publication US20190183910A1, “ENHANCING DNA REPAIR AND PREVENTING AGING AND ITS CONSEQUENCES IN REPRODUCTIVE AND OTHER CELLS” (NEW YORK MEDICAL COLLEGE, priority 2016, published 2019).

Values joined by “and” are separate entries in the source; they are usually repeats but may differ in a detail not shown here. Identical values can stand only once.

What all share (type): cell-based
Test [1] relates to mouse sperm. The test can be described thus: Reactive oxygen species in mouse sperm. Conditions: as a result of S1P treatment. As for the experimental part: (§1) Treatment was performed with genotoxic stress (1 mM H2O2), S1P (200 μM), and S1P with genotoxic stress and control in culture for one hour. Also, the use of an ATM inhibitor was utilized (10 μM) (KU-55593, Abcam) (Li et al., 2014). We assessed DNA damage, apoptosis, and chromatin integrity. We also studied the DNA DSB repair gene expression by qRT-PCR in sperm lysates.

The subject of the next test is MRE11. The test can be described thus: qRT-PCR DNA DSB repair gene expression in mouse sperm lysates, MRE11. On the procedure: as §1
(§2) Sperm pellets previously snap-frozen in PBS were thawed. RNA was extracted using the trizol method (Rio et al., 2010). The quality and quantity of the RNA were measured with NanoDrop 2000 from Thermo Scientific. RNA (2 μg) from each sample was taken for reverse transcription with dTVN and N9 primers and SuperScript III reverse transcriptase, all procured from Invitrogen. The resulting cDNA was used to perform real-time qPCR with SYBR Green on an Applied Biosystems 7900HT Real-Time PCR machine was used. To determine the relative expression of various DNA repair genes in mouse sperm, we used the ΔΔCt method, which makes use of the expression of housekeeping genes. GAPDH was used as housekeeping gene. Primers were procured from Integrated DNA technologies (IDT) (Table 3).

Test [2] relates to mouse sperm. Nature of the test: Apoptosis by FLICA (activated caspases) in mouse sperm. Conditions: as a result of S1P treatment. On the procedure:
as §1
Levels of activated caspases were detected in mouse sperm samples using fluorescein-labelled inhibitors of caspases (FLICA). This cell-permeable and non-cytotoxic caspase inhibitor binds covalently to active caspases. The fluorogenic substrate becomes fluorescent on cleavage by the caspases. The inhibitors were used with the appropriate controls according to the kit instructions provided by the manufacturer (ImmunoChemistry Technologies). A 150-fold stock solution of the inhibitor was prepared in dimethylsulphoxide (DMSO). It was further diluted in phosphate-buffered saline (PBS) to yield a 30-fold working solution. Sperm samples (300 μl) were incubated at 37° C. for 1 hr with 10 μl of the working solution and subsequently washed twice with PBS. After labeling with FLICA, 1% propidium iodide (PI) in PBS was used to assess dead cells. All samples were analyzed directly by flow cytometry to detect caspase activity (Bedner et al., 2000; Darzynkiewicz et al., 2011).

The next test has as its system human sperm. Nature of the test: Alkaline comet assay on human sperm. Conditions: n=3, mean±SEM.
The subject of another test is BRCA1. Nature of the test: qRT-PCR DNA DSB repair gene expression in mouse sperm lysates, BRCA1. On the procedure:
as §1, §2
On the technique in general: Real-time PCR tracks product formation cycle by cycle.

Test [3] relates to mouse sperm. The test can be described thus: DNA DSBs by γH2AX expression in S1P-treated mouse sperm. Conditions: for DNA DSBs as reported by γH2AX expression: culture 1 hour, n=9, mean±SEM. As for the experimental part: as §1
DNA damage assessment of testicular tissue from mice utilized a Ser139 phosphorylation-specific γH2AX antibody (IHC-00059; Bethyl Laboratories) performed with enzymatic diaminobenzidine staining (Vector). Histone H2AX, one of the several variants of the nucleosome core histone H2A, becomes phosphorylated on Ser139 in response to DSBs (γH2AX). Within seconds of DSB formation, γH2AX foci are formed at the site of DNA damage, which can be detected by confocal microscopy or immunohistochemistry to quantify DNA damage. Foci of γH2AX represent DDR in a 1:1 manner, enabling sensitive quantification of potential DSBs (Katsube et al., 2014). Primordial follicles containing a γH2AX-positive oocyte were considered to be DNA-damaged (Rogakou et al., 1998). Sperm were assessed for DNA damage with antibody to γH2AX (613402; BioLegend) and secondary antibody Alexa Fluor 488 (A-11029; Invitrogen), followed by nuclear counterstaining with diamidino-2-phenylindole (DAPI; Fisher Scientific). Immunofluorescence for SD sperm samples was measured by FACScan flow cytometer (Becton-Dickinson) or laser scanning cytometry (Halicka et al., 2008).

The test system of test [4] is mouse sperm. Nature of the test: Susceptibility of DNA to denaturation by AO staining in mouse sperm. Conditions: as a result of S1P treatment. As for the experimental part:
as §1
DNA integrity of mouse sperm were assessed via flow cytometry using acridine orange (AO) staining (Hawley and Hawley, 2004). AO fluoresces green when attached to native DNA, and fluoresces red when attached to fragmented DNA. Basically, after induction of denaturation by heat or acid the denatured DNA (ssDNA) stains metachromatically red with AO while dsDNA stains green. When the sample has ≥50% green fluorescence, the sample is of good quality. Similarly, AO was used to assess sperm chromatin structure by measuring its intensity of fluorescence, which is the ratio of red/(red+green) yields the percentage of DNA fragmentation (also known as DNA fragmentation index, or DFI %).

Setting [5] is: S1P treatment with ATM inhibitor.

For `CCCCCCCCCCCCC/C=C/[C@@H](O)[C@@H](N)COP(=O)(O)O` [S1P, sphingosine 1 phosphate], the reactive oxygen species entry in the test with mouse sperm [1] was “no significant difference”. The “MRE11 expression (qRT-PCR)” value was “no significant difference” in the test with MRE11 (setting [5]) and “no significant difference” in the test with MRE11 (S1P treatment, no ATM inhibitor). Also, in the test on mouse sperm [2], the “percentage of apoptosis by FLICA” value is “no significant difference”. Further, the “percent tail DNA, alkaline comet” value was 26.1±1.19% in the test with human sperm (S1P with H2O2, with ATM inhibitor); 13.2±0.51% and 13.2±1.25% in the test with human sperm (S1P with H2O2, without ATM inhibitor). Besides, the “BRCA1 expression (qRT-PCR)” value is listed as 0.471±0.602 in the test on BRCA1 (S1P alone, n=9, mean±SEM); 0.755±0.378 in the test on BRCA1 (S1P in the presence of genotoxic stress, n=9, mean±SEM); “blocked the S1P induced increase” with BRCA1 (setting [5]). The “DNA DSBs as reported by γH2AX expression” value is on record as 8.29±1.45 with mouse sperm [3] (S1P (200 μM) in the presence of genotoxic stress (1 mM H2O2)) and 8.94±1.48 with mouse sperm [3] (S1P alone (200 μM)). Further, the “DNA integrity (protective effect of S1P)” value in the test on mouse sperm [3] (in the presence of an ATM inhibitor (10 μM KU-55593), n=9) was “ATM inhibition reversed the protective effects”. In addition, the “susceptibility of DNA to denaturation by AO staining” value with mouse sperm [4] is recorded as “no significant difference”.
